Source: US11066668B2, “Compositions and methods for modulation of IKBKAP splicing” (Ionis Pharmaceuticals, Inc., priority 2012, dated 2021)
Oligonucleotides are written 5' to 3', each unit as a sugar letter and its base; * is a phosphorothioate linkage, no mark a phosphodiester; rarer units and linkages stand in square brackets, end groups in braces. Plain capitals give the bases only. e = 2'-O-(2-methoxyethyl) (MOE); [5mC] = 5-methylcytosine

Legend:
Assay type in all cases: cell-based, human
[1] = tested on: IKAP protein; test: IKAP protein levels in GM04899 fibroblasts (SDS-PAGE, anti-IKAP antibody, band intensity)
Method: Protein samples were obtained by Trizol extraction and separated by SDS-PAGE. The bands were transferred onto a nitrocellulose membrane and probed with an anti-IKAP antibody (abcam #ab56362) (1:1,000 dilution in 5% milk in TBST) for 12 hrs. The membrane was washed 5 times with TBST for 5 min each and then probed with secondary antibody 800 nm LiCor (1:5,000 in 5% milk in TBST) for 1 hr in the dark. The membrane was subsequently washed 5 times with TBST for 5 min each. The bands were then exposed at 800 nm and band intensity was quantified using an Odyssey (LiCor) instrument. The results are presented in Table 4 as percent increase in band intensity compared to the control oligonucleotide-treated bands.

[2] = tested on: IKBKAP mRNA in GM04899 fibroblasts; test: Exon 20 inclusion in FD patient skin fibroblast line GM04899 (RT-PCR); conditions: GM04899, kinetin treatment for 3 days, concentration not given; relative to IMR90 cells (100%)
Method: To investigate the effect of ISIS 421992 on patient-derived fibroblasts, the patient skin fibroblast line GM04899 (Coriell Cell Repository) was utilized. The cell line was derived from an individual homozygous for the major FD mutation.
GM04899 was cultured in minimal essential medium (Invitrogen) supplemented with non-essential amino acids (Invitrogen) and 20% (v/v) fetal bovine serum. The cells were grown to 40-50% confluence in 10-cm dishes. Cells were transfected with 2 nM, 5 nM, 25 nM, or 125 nM concentrations of ISIS 421992 using 12 μL Lipofectamine 2000 transfection reagent (Invitrogen). Two days later, cDNA synthesized from total RNA extracted from HEK-293 cells was amplified using the forward primer pCDNAF and reverse primer sequence IKAP21R4 to assay the splicing pattern of expressed RNAs by RT-PCR. To calculate exon 20 inclusion levels, the PCR amplicons were labeled with α^32P-dCTP. The PCR products were then separated by native PAGE, followed by phosphorimage analysis. The band intensities were quantified and values were normalized for the G+C content according to the DNA sequence. Multiple lanes for each condition represent independent experiments.
A batch of cells was treated with solvent (NaOH) only of the kinetin solution as a control. RNA from IMR90, a wild-type normal diploid lung fibroblast cell line was used as positive control. The results are expressed as percent inclusion of exon 20 compared to the exon 20 inclusion (100%) of IKBKAP mRNA in IMR90 cells.

[3] = tested on: IKBKAP pre-mRNA (mt19-21 minigene); test: Exon 20 inclusion in HEK-293 cells harboring the mt19-21 IKBKAP minigene (RT-PCR); conditions: HEK-293 with mt19-21 minigene; for % inclusion (exon 20): 0.007 nmol oligonucleotide by electroporation, RT-PCR two days later
Method: Antisense oligonucleotides were designed targeting a human IKBKAP nucleic acid and were tested for their effects on IKBKAP pre-mRNA in vitro. Together, the overlapping antisense oligonucleotides spanned the entire 74-nucleotide region of the IKBKAP exon 20 sequence, as well as the 100-nucleotide intronic regions immediately upstream and downstream of exon 20. The antisense oligonucleotides are presented in Table 1, and were designed as uniform 2′-O-methoxyethyl ribose (MOE) oligonucleotides with phosphate backbones. Each oligonucleotide is 15 nucleosides in length. All cytosine residues throughout the oligonucleotide are 5-methylcytosines. ‘Start Site’ indicates the 5′-most nucleoside to which the oligonucleotide is targeted in the human gene sequence. “Stop site” indicates the 3′-most nucleoside to which the oligonucleotide is targeted in the human gene sequence. Each oligonucleotide listed in Table 1 is targeted to the human IKBKAP genomic sequence (the complement of GENBANK Accession No NT_008470.16 truncated from nucleotides 13290828 to Ser. No. 13/358,424, designated herein as SEQ ID NO: 1). ISIS 414161 has one mismatch with SEQ ID NO: 1.
Cultured HEK-293 cells harboring the mt19-21 minigene vector construct at a density of 7×10^5 cells per well were transfected using electroporation (Gene Pulsar II apparatus, Bio-Rad) with 0.007 nmol antisense oligonucleotide, as previously described (Hua, Y., et al., 2007. PLoS Biol 5:e73). […] These oligonucleotides served as controls for non-specific effects of uniform MOE oligonucleotides with phosphate backbones. Cells harboring the wt19-21 minigene and the mt19-21 minigene alone were also cultured and were used as controls for exon 20 inclusion levels. Two days later, cDNA synthesized from total RNA extracted from HEK-293 cells was amplified using the forward primer pCDNAF and reverse primer sequence IKAP21R4 to assay the splicing pattern of expressed RNAs by RT-PCR. To calculate exon 20 inclusion levels, the PCR amplicons were labeled with α^32P-dCTP. The PCR products were then separated by native PAGE, followed by phosphorimage analysis on a FUJIFILM FLA-5100 instrument (Fuji Medical Systems USA Inc.). The band intensities were quantified using Multi Gauge software Version 2.3 (FUJIFILM), and values were normalized for the G+C content according to the DNA sequence.
Treatment with antisense oligonucleotides targeting the 3′ and 5′ splice sites caused increased skipping of exon 20.
Additional oligonucleotides were designed targeting the first 30-nucleotide stretch of ISS-40. These oligonucleotides were designed by choosing sequences shifted in one nucleotide increments upstream and downstream (i.e., a “microwalk”) of ISS-40, starting from the +6 position in exon 20. The antisense oligonucleotides are presented in Table 2 and FIG. 4D, and were designed as uniform 2′-O-methoxyethyl ribose (MOE) oligonucleotides with phosphate backbones. Each oligonucleotide is 20 nucleosides in length. All cytosine residues throughout the oligonucleotide are 5-methylcytosines. ‘Start Site’ indicates the 5′-most nucleoside to which the oligonucleotide is targeted in the human gene sequence. “Stop site” indicates the 3′-most nucleoside to which the oligonucleotide is targeted in the human gene sequence. Each oligonucleotide listed in Table 2 is targeted to intron 20 of the human IKBKAP genomic sequence (the complement of GENBANK Accession No NT_008470.16 truncated from nucleotides 13290828 to Ser. No. 13/358,424, designated herein as SEQ ID NO: 1). These oligonucleotides were tested in vitro.
Cultured HEK-293 cells harboring the mt19-21 minigene vector construct at a density of 7×10^5 cells per well were transfected using electroporation (Gene Pulsar II apparatus, Bio-Rad) with 0.007 nmol antisense oligonucleotide, as previously described (Hua, Y., et al., 2007. PLoS Biol 5:e73). […]

c1coc(CNc2ncnc3nc[nH]c23)c1 [kinetin, 6-furfurylaminopurine, reference compound]
IKAP protein levels, in words ([1]; GM04899, kinetin, under these conditions): did not increase IKAP protein levels | Percent increase in protein band intensity (IKAP) ([1]; GM04899, kinetin-treated, compared to control oligonucleotide-treated bands): 11% | % inclusion of exon 20 [2]: 98%

ISIS 421996: uniform 2′-MOE 20-mer, phosphate backbone; ACTAGTCGCAAACAGTACAA, SEQ ID NO 65, intron 20 (eAe[5mC]eTeAeGeTe[5mC]eGe[5mC]eAeAeAe[5mC]eAeGeTeAe[5mC]eAeA; splice-switching)
% inclusion (exon 20) ([3]; Table 2 (microwalk experiment)): 89%

ISIS 414137: uniform 2′-MOE 15-mer, phosphate backbone; TTTAAATAGCCAGGA, SEQ ID NO 16, intron 19 (eTeTeTeAeAeAeTeAeGe[5mC]e[5mC]eAeGeGeA; splice-switching)
effect on exon 20 inclusion/skipping, in words ([3]; 0.007 nmol oligonucleotide): positive effect on exon 20 inclusion | % inclusion (exon 20) ([3]; Table 1): 52%

ISIS 414129: uniform 2′-MOE 15-mer, phosphate backbone, 5-methylcytosines; AGAGAATTACCACAA, SEQ ID NO 8, intron 19 (eAeGeAeGeAeAeTeTeAe[5mC]e[5mC]eAe[5mC]eAeA; splice-switching)
% inclusion (exon 20) ([3]; Table 1): 23%

ISIS 414140: uniform 2′-MOE 15-mer, phosphate backbone; ATTAAGTAGAAAACA, SEQ ID NO 19, intron 19 (eAeTeTeAeAeGeTeAeGeAeAeAeAe[5mC]eA; splice-switching)
% inclusion (exon 20) ([3]; Table 1): 13%

ISIS 414172: uniform 2′-MOE 15-mer, phosphate backbone; ATTGTAATAAAATAC, SEQ ID NO 51, intron 20 (eAeTeTeGeTeAeAeTeAeAeAeAeTeAe[5mC]; splice-switching)
% inclusion (exon 20) ([3]; Table 1): 31%

ISIS 421999: uniform 2′-MOE 20-mer, phosphate backbone; CTAACTAGTCGCAAACAGTA, SEQ ID NO 68, intron 20 (e[5mC]eTeAeAe[5mC]eTeAeGeTe[5mC]eGe[5mC]eAeAeAe[5mC]eAeGeTeA; splice-switching)
% inclusion (exon 20) ([3]; Table 2 (microwalk experiment)): 82%

ISIS 414177: uniform 2′-MOE 15-mer, phosphate backbone; CTTTTCATAATTTTA, SEQ ID NO 56, intron 20 (e[5mC]eTeTeTeTe[5mC]eAeTeAeAeTeTeTeTeA; splice-switching)
% inclusion (exon 20) ([3]; Table 1): 25%
